What was measured:
Toxicity test/peroral = conditions: in vivo, po; Albino rat, peroral, evaluation after 7 days
Description: Test animal: Albino rat (Rattus norvegicus)
To produce a suitable preparation of active compound, 3 parts by weight of active compound were mixed with 2.8 parts by weight of highly-dispersible silica and 4.2 parts by weight of talc. Suspensions which contained, in 1 ml of liquid, the amount of active compound to be applied per 100 g of animal weight, were prepared from the above active-compound concentrate, with a little added powdered vegetable gum, by grinding with water. Dosing was effected volumetrically after weighing the test animals. A steel knob-ended probe was used for oral administration. The evaluation was carried out in each case after the end of the above-mentioned time interval, calculated from the administration of the active compound.
The LD50 values (dose of active compound at which 50% of the treated animals were killed) were determined in the usual manner from the mortality figures of the doses, which were varied in geometrical progression.
The active compounds and LD50 values can be seen from the table which follows: […]

[1] = test system: two-spotted spider mite (Tetranychus urticae); experiment: Tetranychus test (resistant); assay type: in vivo; conditions: 48 h, after 2 days, resistant Tetranychus urticae on bean plants, read-out: Degree of destruction in % after 2 days; for mortality at 0.01 %: active compound concentration 0.01 %; for mortality at 0.1 %: active compound concentration 0.1 %
Description: Tetranychus test (resistant)
Solvent: 3 parts by weight of acetone
Emulsifier: 1 part by weight of alkylaryl polyglycol ether
To produce a suitable preparation of active compound, 1 part by weight of the active compound was mixed with the stated amount of solvent containing the stated amount of emulsifier and the concentrate was diluted with water to the desired concentration.
These bean plants were heavily infested with the two-spotted spider mite (Tetranychus urticae) in all stages of development.
After the specified periods of time, the effectiveness of the preparation of active compound was determined by counting the dead mites. The degree of destruction thus obtained was expressed as a percentage: 100% means that all the spider mites were killed, whereas 0% means that none of the spider mites were killed.
The active compounds, the concentrations of the active compounds, the evaluation times and the results can be seen from the following table: […]

Musca domestica = experiment: LT100 test for Diptera; assay type: in vivo; conditions: time for 100% destruction
Description: Test insects: Musca domestica
2 parts by weight of active compound were dissoled in 1,000 parts by volume of solvent. The solution so obtained was diluted with further solvent to the desired lower concentrations.
2.5 ml of the solution of active compound were pipetted into a Petri dish. On the bottom of the Petri dish there was a filter paper with a diameter of about 9.5 cm. The Petri dish remained uncovered until the solvent had completely evaporated. The amount of active compound per m^2 of filter paper varied with the concentration of the solution of active compound. About 25 test insects were then placed in the Petri dish and it was covered with a glass lid.
The condition of the test insects was continuously observed. The time which was necessary for 100% destruction was determined.
The test insects, the active compounds, the concentrations of the active compounds and the times at which there was 100% destruction can be seen from the following table: […]

warm-blooded animals = conditions: in words; known compounds; cited from earlier work
[2] = active compound concentration of the solution 0.02 %
[3] = active compound concentration of the solution 0.2 %

SMILES	LD50 at 168 h (Toxicity test/peroral)	mortality at 0.01 % [1]	mortality at 0.1 % [1]	LT100 in minutes (') (Musca domestica; [2])	LT100 in minutes (') (Musca domestica; [3])	toxicity to warm-blooded animals (warm-blooded animals)	LT100 in hours (Musca domestica; [2])
CCCSP(=S)(OCC)Oc1ccc(Br)nn1 (stereo not drawn) [Compound 1, O-ethyl-S-n-propyl-O-[6-bromo-pyridazin(3)-yl]-thionothiolphosphoric acid ester]	100 to 250 mg/kg	100%	100%	–	–	–	–
CCCSP(=S)(OCC)Oc1ccc(C)nn1 (stereo not drawn) [Compound 2]	~50 mg/kg	–	–	–	–	–	–
CCCSP(=S)(OCC)Oc1ccc(Cl)nn1 (stereo not drawn) [Compound 3]	100 to 250 mg/kg	–	–	165 min	55 min	–	–
CCOP(=S)(OCC)Oc1ccc(Cl)nn1 [Compound A, O,O-diethyl-O-[6-chloro-pyridazin-(3)-yl]-thionophosphoric acid ester]	~5 mg/kg	–	–	–	–	high toxicity to warm-blooded animals	–
CCOP(=S)(OCC)Oc1ccc(C)nn1 [Compound B, O,O-diethyl-O-[6-methyl-pyridazin-(3)-yl]-thionophosphoric acid ester]	0.5 to 1 mg/kg	20%	100%	–	135 min	high toxicity to warm-blooded animals	8 h

Source: patent US3950334A, “O-Alkyl-S-alkyl-O-[6-alkyl- or 6-halo-pyridazin-(3)-yl]-(thiono)thiol-phosphoric acid esters” (priority 1973, dated 1976)
